Data on 24 compounds can be found in ChEMBL document CHEMBL1147216, “Parallel synthesis and SAR study of novel oxa-steroids as potent and selective progesterone receptor antagonists” (Bioorg Med Chem Lett, 2007).

Structures are written as SMILES.

One assay is filed under the species Homo sapiens. Put plainly: Selectivity of human progesterone receptor over human glucocorticoid receptor.
For a further assay, the target named is T1, Glucocorticoid receptor (Homo sapiens, UniProt P04150).
T1 sequence (P04150 whole entry): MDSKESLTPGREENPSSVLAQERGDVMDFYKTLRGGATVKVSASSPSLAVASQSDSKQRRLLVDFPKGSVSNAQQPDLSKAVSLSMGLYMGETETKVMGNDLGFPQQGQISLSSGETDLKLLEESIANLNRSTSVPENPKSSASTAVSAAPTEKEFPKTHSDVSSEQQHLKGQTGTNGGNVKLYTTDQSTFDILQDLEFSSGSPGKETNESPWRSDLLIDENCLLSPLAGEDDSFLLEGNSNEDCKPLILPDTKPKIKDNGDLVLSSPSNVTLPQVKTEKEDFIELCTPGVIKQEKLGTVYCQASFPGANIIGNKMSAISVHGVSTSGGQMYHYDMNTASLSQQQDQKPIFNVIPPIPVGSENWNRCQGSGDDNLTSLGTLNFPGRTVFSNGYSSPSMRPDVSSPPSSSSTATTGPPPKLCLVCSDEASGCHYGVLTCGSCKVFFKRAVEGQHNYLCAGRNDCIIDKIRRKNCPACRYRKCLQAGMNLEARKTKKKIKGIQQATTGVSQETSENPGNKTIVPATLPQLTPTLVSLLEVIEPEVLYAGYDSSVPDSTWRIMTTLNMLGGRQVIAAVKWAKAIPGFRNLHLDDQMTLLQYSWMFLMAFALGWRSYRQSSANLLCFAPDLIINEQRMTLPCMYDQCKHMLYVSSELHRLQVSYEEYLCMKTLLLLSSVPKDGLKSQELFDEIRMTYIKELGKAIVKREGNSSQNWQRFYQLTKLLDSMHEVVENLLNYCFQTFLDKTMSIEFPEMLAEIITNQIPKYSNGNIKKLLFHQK
The assay is described as follows: Antagonist activity at human glucocorticoid receptor assessed as inhibition of corticoid-induced transcription in human A549 cells by GRE-linked luciferase reporter gene assay. The format is functional, cell-based. A general note: A reporter such as luciferase makes a cellular process visible.

The target in a further assay is T2, Progesterone receptor (Homo sapiens, UniProt P06401).
T2 sequence (P06401 whole entry): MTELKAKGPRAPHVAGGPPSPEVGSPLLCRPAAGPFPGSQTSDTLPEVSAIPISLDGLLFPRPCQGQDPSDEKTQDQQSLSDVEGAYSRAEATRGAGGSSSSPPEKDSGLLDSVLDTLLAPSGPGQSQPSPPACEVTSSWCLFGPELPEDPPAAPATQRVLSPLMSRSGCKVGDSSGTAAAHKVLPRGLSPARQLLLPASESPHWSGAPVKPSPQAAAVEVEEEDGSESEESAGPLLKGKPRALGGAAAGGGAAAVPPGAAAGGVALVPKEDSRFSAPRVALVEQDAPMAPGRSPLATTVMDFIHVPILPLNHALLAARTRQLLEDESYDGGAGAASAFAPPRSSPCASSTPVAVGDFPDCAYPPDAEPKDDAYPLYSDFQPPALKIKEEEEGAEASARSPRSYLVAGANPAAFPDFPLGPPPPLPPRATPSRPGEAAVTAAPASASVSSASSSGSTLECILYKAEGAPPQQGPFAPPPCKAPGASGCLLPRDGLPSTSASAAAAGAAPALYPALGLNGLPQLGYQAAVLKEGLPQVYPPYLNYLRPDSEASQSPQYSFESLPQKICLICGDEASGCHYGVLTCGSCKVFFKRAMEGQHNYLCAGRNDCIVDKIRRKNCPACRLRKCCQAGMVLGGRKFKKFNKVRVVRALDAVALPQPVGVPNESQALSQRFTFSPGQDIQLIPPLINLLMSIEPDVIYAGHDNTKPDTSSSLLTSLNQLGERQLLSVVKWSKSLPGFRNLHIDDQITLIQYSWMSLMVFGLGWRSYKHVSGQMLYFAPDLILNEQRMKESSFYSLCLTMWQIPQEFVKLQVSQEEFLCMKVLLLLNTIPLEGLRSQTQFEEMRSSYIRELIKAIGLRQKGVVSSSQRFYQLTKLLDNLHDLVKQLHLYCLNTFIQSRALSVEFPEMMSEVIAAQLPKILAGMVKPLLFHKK
Put plainly: Antagonist activity at human progesterone receptor assessed as inhibition of alkaline phosphatase activity in human T47D cells. The format is functional, cell-based.

Broadly, the IC50 is the concentration that gives 50% inhibition.

With `CN(C)c1ccc([C@H]2C[C@@]3(C)[C@@H](CC[C@@]3(O)C#Cc3ccccn3)[C@@H]3OCC4=CC(=O)CCC4=C32)cc1`, the Ratio IC50 in the assay listed under Homo sapiens was 5. For the same compound, the IC50 was found to be 0.175 µM on Glucocorticoid receptor and 0.034 µM on Progesterone receptor.
The like results for `Cc1cccc(C#C[C@]2(O)CC[C@H]3[C@@H]4OCC5=CC(=O)CCC5=C4[C@@H](c4ccc(N(C)C)cc4)C[C@@]32C)c1` were, in that order, 13, 0.0363 µM and 0.0029 µM.
For `CN(C)c1ccc([C@H]2C[C@@]3(C)[C@@H](CC[C@@]3(O)C#Cc3ccccc3Cl)[C@@H]3OCC4=CC(=O)CCC4=C32)cc1` the same measures were 59, 0.0648 µM and 0.0011 µM.
The like results for `CN(C)c1ccc([C@H]2C[C@@]3(C)[C@@H](CC[C@@]3(O)C#Cc3ccc(Br)cc3)[C@@H]3OCC4=CC(=O)CCC4=C32)cc1` were, in that order, 33, 0.0313 µM and 0.00094 µM.
Regarding `CN(C)c1ccc([C@H]2C[C@@]3(C)[C@@H](CC[C@@]3(O)C#Cc3ccncc3)[C@@H]3OCC4=CC(=O)CCC4=C32)cc1`, the Ratio IC50 in the assay listed under Homo sapiens came out at 6. The results for the IC50 on Glucocorticoid receptor and on Progesterone receptor were 0.247 µM and 0.039 µM, respectively.
The like results for `CN(C)c1ccc([C@H]2C[C@@]3(C)[C@@H](CC[C@@]3(O)C#Cc3ccc(C#N)cc3)[C@@H]3OCC4=CC(=O)CCC4=C32)cc1` were, in that order, 11, 0.0413 µM and 0.0037 µM.
The like results for `Cc1ccccc1C#C[C@]1(O)CC[C@H]2[C@@H]3OCC4=CC(=O)CCC4=C3[C@@H](c3ccc(N(C)C)cc3)C[C@@]21C` were, in that order, 20, 0.113 µM and 0.0058 µM.
With `CN(C)c1ccc([C@H]2C[C@@]3(C)[C@@H](CC[C@@]3(O)C#Cc3cccc(C(F)(F)F)c3)[C@@H]3OCC4=CC(=O)CCC4=C32)cc1`, the Ratio IC50 in the assay filed under Homo sapiens turned out to be 17. Further, the IC50 at Glucocorticoid receptor was found to be 0.0454 µM; on Progesterone receptor it was 0.0027 µM.
With `COc1ccc(C#C[C@]2(O)CC[C@H]3[C@@H]4OCC5=CC(=O)CCC5=C4[C@@H](c4ccc(N(C)C)cc4)C[C@@]32C)cc1`, the Ratio IC50 in the assay filed under Homo sapiens came to 25. The values for the IC50 at Glucocorticoid receptor and at Progesterone receptor were 0.0803 µM and 0.0032 µM, respectively.
The like results for `CN(C)c1ccc([C@H]2C[C@@]3(C)[C@@H](CC[C@@]3(O)C#Cc3ccccc3C(F)(F)F)[C@@H]3OCC4=CC(=O)CCC4=C32)cc1` were, in that order, 16, 0.051 µM and 0.0032 µM.
`CN(C)c1ccc([C@H]2C[C@@]3(C)[C@@H](CC[C@@]3(O)C#Cc3ccccc3Br)[C@@H]3OCC4=CC(=O)CCC4=C32)cc1`: the Ratio IC50 in the assay filed under Homo sapiens was determined as 7. The IC50 came out at 0.0627 µM at Glucocorticoid receptor and 0.0086 µM on Progesterone receptor.
For `CN(C)c1ccc([C@H]2C[C@@]3(C)[C@@H](CC[C@@]3(O)C#Cc3ccc(C(C)(C)C)cc3)[C@@H]3OCC4=CC(=O)CCC4=C32)cc1` the same measures were 3, 0.0658 µM and 0.0195 µM.
For `Cc1ccc(C#C[C@]2(O)CC[C@H]3[C@@H]4OCC5=CC(=O)CCC5=C4[C@@H](c4ccc(N(C)C)cc4)C[C@@]32C)cc1` the same measures were 14, 0.0221 µM and 0.0016 µM.
With `CN(C)c1ccc([C@H]2C[C@@]3(C)[C@@H](CC[C@@]3(O)C#Cc3cccc(F)c3)[C@@H]3OCC4=CC(=O)CCC4=C32)cc1`, in the assay listed under Homo sapiens, the Ratio IC50 turned out to be 57. Also, the IC50 at Glucocorticoid receptor amounted to 0.0566 µM; at Progesterone receptor, 0.001 µM.
For `CN(C)c1ccc([C@H]2C[C@@]3(C)[C@@H](CC[C@@]3(O)C#Cc3cccc(Cl)c3)[C@@H]3OCC4=CC(=O)CCC4=C32)cc1`, the Ratio IC50 in the assay listed under Homo sapiens is 4. For the same compound, the results for the IC50 at Glucocorticoid receptor and at Progesterone receptor were 0.0489 µM and 0.0125 µM, respectively.
As for `CN(C)c1ccc([C@H]2C[C@@]3(C)[C@@H](CC[C@@]3(O)C#Cc3ccsc3)[C@@H]3OCC4=CC(=O)CCC4=C32)cc1`, in the assay listed under Homo sapiens, the Ratio IC50 was 35. Besides, the figures for the IC50 at Glucocorticoid receptor and at Progesterone receptor were 0.056 µM and 0.0016 µM, respectively.
As for `CN(C)c1ccc([C@H]2C[C@@]3(C)[C@@H](CC[C@@]3(O)C#Cc3ccc(C(F)(F)F)cc3)[C@@H]3OCC4=CC(=O)CCC4=C32)cc1`, the Ratio IC50 in the assay listed under Homo sapiens came to 148. The IC50 at Glucocorticoid receptor was determined as 0.111 µM; at Progesterone receptor, 0.00075 µM.
For `CC#C[C@]1(O)CC[C@H]2[C@@H]3OCC4=CC(=O)CCC4=C3[C@@H](c3ccc(N(C)C)cc3)C[C@@]21C`, the Ratio IC50 in the assay listed under Homo sapiens is 12.
Regarding `CN(C)c1ccc([C@H]2C[C@@]3(C)[C@@H](CC[C@@]3(O)C#Cc3ccc(F)cc3)[C@@H]3OCC4=CC(=O)CCC4=C32)cc1`, in the assay filed under Homo sapiens, the Ratio IC50 stood at 139. Further, the IC50 at Glucocorticoid receptor is 0.0376 µM; on Progesterone receptor it was 0.00027 µM.
For the compound `CN(C)c1ccc([C@H]2C[C@@]3(C)[C@@H](CC[C@@]3(O)C#Cc3cccnc3)[C@@H]3OCC4=CC(=O)CCC4=C32)cc1`, in the assay filed under Homo sapiens, the Ratio IC50 was 16. The IC50 on Glucocorticoid receptor turned out to be 0.342 µM; at Progesterone receptor, 0.021 µM.
As for `CN(C)c1ccc([C@H]2C[C@@]3(C)[C@@H](CC[C@@]3(O)C#Cc3ccccc3)[C@@H]3OCC4=CC(=O)CCC4=C32)cc1`, in the assay listed under Homo sapiens, the Ratio IC50 worked out at 217.
On to `CN(C)c1ccc([C@H]2C[C@@]3(C)[C@@H](CC[C@@]3(O)C#Cc3cc(F)cc(F)c3)[C@@H]3OCC4=CC(=O)CCC4=C32)cc1`, for which the Ratio IC50 in the assay filed under Homo sapiens was 38. The IC50 on Glucocorticoid receptor came to 0.0344 µM; on Progesterone receptor, 0.00091 µM.
For `CN(C)c1ccc([C@H]2C[C@@]3(C)[C@@H](CC[C@@]3(O)C#Cc3ccc(Cl)cc3)[C@@H]3OCC4=CC(=O)CCC4=C32)cc1` the same measures were 71, 0.0435 µM and 0.00061 µM.
On to `CN(C)c1ccc([C@H]2C[C@@]3(C)[C@@H](CC[C@@]3(O)C#Cc3ccccc3F)[C@@H]3OCC4=CC(=O)CCC4=C32)cc1`, for which the Ratio IC50 in the assay filed under Homo sapiens came to 47. Also, the IC50 at Glucocorticoid receptor is 0.0651 µM; on Progesterone receptor, 0.0014 µM.
